From PMC5085689, “Cinnamide Derivatives as Mammalian Arginase Inhibitors: Synthesis, Biological Evaluation and Molecular Docking” (International Journal of Molecular Sciences, 2016)
Several values for one entry are separate records, joined by “and”; a condition that tells them apart may be missing. Equal entries are not always repeated. Where two headings read alike, the source gives them in different places.

Experiments:
b-ARG I = target: T1, b-ARG I (Bos taurus, UniProt Q2KJ64); assay: Enzyme kinetic study and determination of Ki values on b-ARG I; type: biochemical, bovine; settings: for Type of Inhibition: Lineweaver–Burk, Dixon and Cornish–Bowden plots
T1 construct: commercially-available purified bovine arginase (b-ARG I) instead of animal tissue; purchased MP Biomedicals; host or cells: bovine liver (enzyme purified from tissue)
T1 sequence (Q2KJ64 1-322): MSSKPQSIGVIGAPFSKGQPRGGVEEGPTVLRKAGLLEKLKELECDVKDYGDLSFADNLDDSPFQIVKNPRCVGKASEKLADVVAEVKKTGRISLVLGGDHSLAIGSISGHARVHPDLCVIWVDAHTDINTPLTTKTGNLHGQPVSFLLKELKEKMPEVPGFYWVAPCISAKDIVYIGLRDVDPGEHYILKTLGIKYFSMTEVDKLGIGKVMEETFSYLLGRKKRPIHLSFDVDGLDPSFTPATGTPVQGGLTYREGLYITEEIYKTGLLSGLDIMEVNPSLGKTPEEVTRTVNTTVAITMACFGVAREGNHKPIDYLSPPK

[1] = target: T2, purified liver bovine arginase (b-ARG I) (Bos taurus, UniProt Q2KJ64); assay: In vitro colorimetric microassay of arginase inhibition on purified bovine liver arginase; type: biochemical; settings: for inhibition at 100 µM: read-out: b-ARG I Inhibition (%) (100 μM);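 for all read-outs here: urea formed from L-arginine detected colorimetrically with alpha-isonitrosopropiophenone at 550 nm after 60 min at 37 °C, inhibition relative to solvent controls taken as 100% arginase activity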
T2 construct: commercially-available purified bovine arginase (b-ARG I) instead of animal tissue; purchased MP Biomedicals; host or cells: bovine liver (enzyme purified from tissue)
T2 sequence (Q2KJ64 1-322): T1 sequence (Q2KJ64 1-322)

[2] = target: T3, recombinant human arginase I (h-ARG I) (Homo sapiens, UniProt P05089); assay: In vitro colorimetric microassay of arginase inhibition on recombinant human arginase I; type: biochemical
T3 construct: purchased Interchim BXC572/n P0408M10
T3 sequence (P05089 1-322): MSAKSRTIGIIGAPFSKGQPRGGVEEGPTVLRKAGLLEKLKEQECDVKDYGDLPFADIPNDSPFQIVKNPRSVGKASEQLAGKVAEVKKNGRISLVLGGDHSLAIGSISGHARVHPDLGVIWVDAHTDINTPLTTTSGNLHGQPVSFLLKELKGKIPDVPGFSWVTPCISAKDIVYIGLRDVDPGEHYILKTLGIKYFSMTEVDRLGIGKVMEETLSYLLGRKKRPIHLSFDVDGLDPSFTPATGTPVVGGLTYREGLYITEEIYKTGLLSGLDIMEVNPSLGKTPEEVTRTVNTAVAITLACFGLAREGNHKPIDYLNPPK

[3] = b-ARG I, Cheng–Prusoff equation, [S] = 14.3 mM L-arginine, Km = 55.5 ± 10.5 µM, read-out: Ki
[4] = 100 μM final concentration, three separate in-duplicate experiments
[5] = purified bovine liver arginase, three separate in-triplicate experiments, read-out: IC50 (b-ARG I)

| SMILES | inhibition at 100 µM [1, 4] | IC50 [1, 5] | further results |
| --- | --- | --- | --- |
| O=C(/C=C/c1ccc(O)c(O)c1)O[C@@H]1C[C@](O)(C(=O)O)C[C@@H](O)[C@H]1O [CGA, chlorogenic acid, reference compound] |  |  | Ki (b-ARG I): 8.4 ± 1.2 µM; Type of Inhibition (b-ARG I; b-ARG I): competitive; IC50 ([1]; IC50 (b-ARG I), purified bovine liver arginase, three separate in-triplicate experiments): < 50 µM and 10.6 µM; inhibition at 100 µM [1]: 71 ± 1% |
| O=C(O)/C=C/c1ccc(O)c(O)c1 [Caffeic acid, reference compound] |  |  | IC50 [1]: 86.7 ± 8 µM |
| O=C(/C=C/c1ccc(O)c(O)c1)NCCc1ccccc1 [Compound 1, (E)-N-(2-Phenylethyl)-3,4-dihydroxycinnamide] | 64 ± 2% | 6.9 ± 1.3 µM | IC50 [2]: 60.3 ± 7.8 µM; Ki (b-ARG I; [3]): 5.5 ± 1 µM; Type of Inhibition (b-ARG I; b-ARG I, listed as CAPA): competitive inhibitor; Type of Inhibition (b-ARG I; b-ARG I, listed as CAPA (1)): competitive |
| COc1cc(/C=C/C(=O)NCCc2ccccc2)ccc1O [Compound 2, (E)-N-(2-Phenylethyl)-3-methoxy-4-hydroxycinnamide] | 37 ± 4% |  |  |
| O=C(/C=C/c1ccc(O)cc1)NCCc1ccccc1 [Compound 3, (E)-N-(2-Phenylethyl)-4-hydroxycinnamide] | 31 ± 4% |  |  |
| COc1cc(/C=C/C(=O)NCCc2ccccc2)cc(OC)c1OC [Compound 4, (E)-N-(2-Phenylethyl)-3,4,5-trimethoxycinnamide] | 35 ± 2% |  |  |
| O=C(/C=C/c1ccccc1)NCCc1ccccc1 [Compound 5, (E)-N-(2-Phenylethyl)cinnamide] | 34 ± 2% |  |  |
| O=C(/C=C/c1ccc(O)c(O)c1)NCCc1ccc(O)cc1 [Compound 6, (E)-N-(2-(4-Hydroxyphenyl)ethyl)-3,4-dihydroxycinnamide] | 58 ± 2% | 22.1 ± 1.6 µM |  |
| COc1cc(/C=C/C(=O)NCCc2ccc(O)cc2)ccc1O [Compound 7, (E)-N-(4-Hydroxyphenethyl)-3-methoxy-4-hydroxycinnamide] | 24 ± 2% |  |  |
| O=C(/C=C/c1ccc(O)cc1)NCCc1ccc(O)cc1 [Compound 8, (E)-N-(4-Hydroxyphenethyl)-4-hydroxycinnamide] | 40 ± 2% |  |  |
| COc1cc(/C=C/C(=O)NCCc2ccc(O)cc2)cc(OC)c1OC [Compound 9, (E)-N-(4-Hydroxyphenethyl)-3,4,5-trimethoxycinnamide] | 30 ± 2% |  |  |
| O=C(/C=C/c1ccccc1)NCCc1ccc(O)cc1 [Compound 10, (E)-N-(4-Hydroxyphenethyl)-cinnamide] | 34 ± 3% |  |  |
| O=C(/C=C/c1ccc(O)c(O)c1)NCCc1ccc(O)c(O)c1 [Compound 11, (E)-N-(3,4-Dihydroxyphenethyl)-3,4-dihydroxycinnamide] | 62 ± 3% | 115 ± 1.3 µM |  |
| COc1cc(/C=C/C(=O)NCCc2ccc(O)c(O)c2)ccc1O [Compound 12, (E)-N-(3,4-Dihydroxyphenethyl)-3-methoxy-4-hydroxycinnamide] | 61 ± 3% | 198.7 ± 1.4 µM |  |
| O=C(/C=C/c1ccc(O)cc1)NCCc1ccc(O)c(O)c1 [Compound 13, (E)-N-(3,4-Dihydroxyphenethyl)-4-hydroxycinnamide] | 54 ± 1% | 170.4 ± 1.7 µM |  |
| COc1cc(/C=C/C(=O)NCCc2ccc(O)c(O)c2)cc(OC)c1OC [Compound 14, (E)-N-(3,4-Dihydroxyphenethyl)-3,4,5-trimethoxycinnamide] | 53 ± 1% | 193.6 ± 1.4 µM |  |
| O=C(/C=C/c1ccccc1)NCCc1ccc(O)c(O)c1 [Compound 15, (E)-N-(3,4-Dihydroxyphenethyl)cinnamide] | 68 ± 3% | 39.3 ± 1.4 µM |  |
| O=C(/C=C/c1ccc(O)c(O)c1)Nc1ccc(O)cc1 [Compound 16, (E)-N-(4-Hydroxyphenyl)-3,4-dihydroxycinnamide] | 59 ± 1% | 35.6 ± 1.3 µM |  |
| O=C(NCCc1ccc(O)cc1)c1ccc(O)c(O)c1 [Compound 17, N-(4-Hydoxyphenethyl)-3,4-dihydroxybenzamide] | 52 ± 2% | 175.3 ± 1.5 µM |  |
| COC(=O)C(Cc1ccc(O)c(O)c1)NC(=O)C=Cc1ccc(O)c(O)c1 (stereo not shown) [Compound 18, 3-(3,4-Dihydroxyphenyl)-2-[3-(3,4-dihydroxyphenyl)-acryloylamino]-propionic acid methyl ester] | 62 ± 1% | 41.9 ± 1.3 µM |  |
| COC(=O)[C@H](CS)NC(=O)/C=C/c1ccc(O)c(O)c1 [Compound 19, (E)-N-(3,4-Dihydroxycinnamoyl)-L-cysteine methyl ester] | 67 ± 1% | 37 ± 1.3 µM |  |
| N=C(NO)NCC[C@H](N)C(=O)O [nor-NOHA, N^ω-hydroxy-nor-L-arginine, reference compound] | 99 ± 1% | 1.7 ± 0.2 µM | Ki (b-ARG I; [3]): 1.3 ± 0.1 µM; Type of Inhibition (b-ARG I; b-ARG I): competitive |
